Target: β-galactosidase (β-Gal) (Escherichia coli, UniProt P00722)
Conditions: substrate of β-galactosidase, components mixed in a vial, 35 min incubation, 25° C., pH 7.2 phosphate buffer with 1 mM MgCl2, Michaelis-Menten equation
Procedure: β-galactosidase (β-Gal) (isolated from E. coli), fluorescein mono-β-D-galactopyranoside (FMG), and fluorescein sodium salt were purchased from Sigma-Aldrich (Oakville, ON, Canada). All other chemicals were from Sigma-Aldrich, Caledon, or BDH (Toronto, ON, Canada), and were of analytical grade. Stock solutions of 4.4 mM FMG and 5 nM β-Gal were prepared with 10 mM phosphate (pH 7.2) buffer containing 1 mM MgCl2, and stored at −80° C. The 10 nM phosphate (pH 7.2) buffer containing 1 mM MgCl2 was also used for enzyme reactions, and for capillary electrophoresis as a run buffer. […]
All capillary electrophoresis (CE) experiments were carried out with a P/ACE MDQ instrument equipped with a laser-induced fluorescent (LIF) detector (Beckman-Coulter; Fullerton Calif.). Fluorescence was excited by a 488-nm line of an argon-ion laser (5 mW). […]
6 μL of 1 μM FMG, 3 μL of 1 nM β-Gal, and 9 μL of 10 mM phosphate buffer containing 1 mM MgCl2 were mixed in a 200 μL reservoir. […] The reaction mixture was directly used for quantifying the amount of the product by CE. […] The identification and quantitative assay of products were preformed by the addition of fluorescein (internal reference) to the reaction mixture.
The Km and Kcat values were determined using an approach previously described by Berezovski et al. (Electrophoresis, 23:3398-403, 2002). […]

Sequence of β-galactosidase (β-Gal) (P00722 2-1024): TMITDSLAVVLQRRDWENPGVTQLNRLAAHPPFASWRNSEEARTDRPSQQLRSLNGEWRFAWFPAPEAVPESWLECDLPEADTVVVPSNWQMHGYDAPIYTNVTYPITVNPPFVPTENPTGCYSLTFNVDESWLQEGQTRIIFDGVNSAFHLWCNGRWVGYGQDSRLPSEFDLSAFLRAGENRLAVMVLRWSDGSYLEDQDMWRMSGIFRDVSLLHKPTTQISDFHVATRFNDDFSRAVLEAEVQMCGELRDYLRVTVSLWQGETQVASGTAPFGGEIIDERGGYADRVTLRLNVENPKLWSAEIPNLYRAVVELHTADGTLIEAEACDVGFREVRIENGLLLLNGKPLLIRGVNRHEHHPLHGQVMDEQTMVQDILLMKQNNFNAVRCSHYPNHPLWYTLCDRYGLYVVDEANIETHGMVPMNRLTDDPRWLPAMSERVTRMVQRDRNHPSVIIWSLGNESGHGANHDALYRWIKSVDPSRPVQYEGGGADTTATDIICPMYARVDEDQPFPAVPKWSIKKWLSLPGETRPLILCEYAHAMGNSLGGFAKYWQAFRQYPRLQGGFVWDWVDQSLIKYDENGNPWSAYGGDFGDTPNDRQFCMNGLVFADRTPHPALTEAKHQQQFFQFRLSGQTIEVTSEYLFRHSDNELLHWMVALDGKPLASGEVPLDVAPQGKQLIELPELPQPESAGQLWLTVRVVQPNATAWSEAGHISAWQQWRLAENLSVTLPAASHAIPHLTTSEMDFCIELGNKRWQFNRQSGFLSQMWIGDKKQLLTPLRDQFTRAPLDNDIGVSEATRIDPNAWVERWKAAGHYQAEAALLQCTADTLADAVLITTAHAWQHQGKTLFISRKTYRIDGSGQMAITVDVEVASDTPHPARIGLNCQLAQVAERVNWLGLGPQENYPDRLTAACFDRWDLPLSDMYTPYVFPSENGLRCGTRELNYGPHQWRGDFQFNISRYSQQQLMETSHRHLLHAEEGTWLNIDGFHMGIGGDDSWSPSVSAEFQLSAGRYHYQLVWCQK

For O=C1OC2(c3ccc(O)cc3Oc3cc(O[C@@H]4O[C@H](CO)[C@H](O)[C@H](O)[C@H]4O)ccc32)c2ccccc21 (stereo partly drawn) [fluorescein-mono-β-D-galactopyranoside, fluorescein mono-β-D-galactopyranoside], the Km (read-out: Michaelis constant, Km) was 0.9 µM and the “catalytic rate constant, kcat” value was 0.6 s⁻¹.

Reference: patent US7666660B2, “Method for mixing inside a capillary and devices for achieving same” (priority 2005, dated 2010)
